In PubChem BioAssay (NCI):
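Each compound was tested at five concentrations against cells in 96-well plates for 48 hours. At the TGI there is no net growth.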

Experiments:
Assay in all cases: inhibition of tumour cell growth, NCI panel, 48 h
SF-268 CNS = system: SF-268 CNS
SK-MEL-28 melanoma = system: SK-MEL-28 melanoma
NCI-H460 lung = system: NCI-H460 lung
OVCAR-3 ovarian = system: OVCAR-3 ovarian
DMS 273 small cell lung = system: DMS 273 small cell lung
SNB-19 CNS = system: SNB-19 CNS
SF-295 CNS = system: SF-295 CNS
NCI-H522 lung = system: NCI-H522 lung
MOLT-4 leukemia = system: MOLT-4 leukemia
ACHN renal = system: ACHN renal
CAKI-1 renal = system: CAKI-1 renal
A549 NSCLC = system: A549 NSCLC
SW-620 colon = system: SW-620 colon
U251 CNS = system: U251 CNS
LOX IMVI melanoma = system: LOX IMVI melanoma
SN12C renal = system: SN12C renal
LXFL 529 NSCLC = system: LXFL 529 NSCLC
KM12 colon = system: KM12 colon
HCT-116 colon = system: HCT-116 colon
A498 renal = system: A498 renal
HOP-62 NSCLC = system: HOP-62 NSCLC
786-0 renal = system: 786-0 renal
SK-MEL-2 melanoma = system: SK-MEL-2 melanoma
UO-31 renal = system: UO-31 renal
SF-539 CNS = system: SF-539 CNS
RPMI-8226 leukemia = system: RPMI-8226 leukemia
K-562 leukemia = system: K-562 leukemia
UACC-62 melanoma = system: UACC-62 melanoma
SNB-75 CNS = system: SNB-75 CNS
HL-60(TB) leukemia = system: HL-60(TB) leukemia
M14 melanoma = system: M14 melanoma
NCI-H23 lung = system: NCI-H23 lung
RXF 393 renal = system: RXF 393 renal
OVCAR-4 ovarian = system: OVCAR-4 ovarian
UACC-257 melanoma = system: UACC-257 melanoma
KM20L2 colon = system: KM20L2 colon
CCRF-CEM leukemia = system: CCRF-CEM leukemia
SR leukemia = system: SR leukemia
OVCAR-8 ovarian = system: OVCAR-8 ovarian
TK-10 renal = system: TK-10 renal
NCI-H226 lung = system: NCI-H226 lung
HCT-15 colon = system: HCT-15 colon
EKVX NSCLC = system: EKVX NSCLC
OVCAR-5 ovarian = system: OVCAR-5 ovarian
IGROV1 ovarian = system: IGROV1 ovarian
DMS 114 small cell lung = system: DMS 114 small cell lung
COLO 205 colon = system: COLO 205 colon
SNB-78 CNS = system: SNB-78 CNS
HT29 colon = system: HT29 colon
HCC-2998 colon = system: HCC-2998 colon
SK-OV-3 ovarian = system: SK-OV-3 ovarian
MDA-N = system: MDA-N
BT-549 breast = system: BT-549 breast
DU-145 prostate = system: DU-145 prostate
PC-3 prostate = system: PC-3 prostate
HS 578T breast = system: HS 578T breast
MDA-MB-435 = system: MDA-MB-435
T-47D breast = system: T-47D breast
MDA-MB-231 breast = system: MDA-MB-231 breast
MCF7 breast = system: MCF7 breast
MALME-3M melanoma = system: MALME-3M melanoma
SK-MEL-5 melanoma = system: SK-MEL-5 melanoma
NCI/ADR-RES ovarian = system: NCI/ADR-RES ovarian

For `CC(SC(=O)Nc1ccc(N=Nc2ccccc2)cc1)C(=O)O` (stereo unspecified), the TGI (SF-268 CNS) was 48.9 µM, the TGI (SK-MEL-28 melanoma) was over 100 µM and the TGI (NCI-H460 lung) was over 100 µM. It also gave a TGI (OVCAR-3 ovarian) of over 100 µM, a TGI (DMS 273 small cell lung) of over 100 µM and a TGI (SNB-19 CNS) of over 100 µM. It also gave a TGI (SF-295 CNS) of over 100 µM, a TGI (NCI-H522 lung) of over 100 µM and a TGI (MOLT-4 leukemia) of over 100 µM. The TGI (ACHN renal) was over 100 µM, the TGI (CAKI-1 renal) was over 100 µM and the TGI (A549 NSCLC) was over 100 µM. The TGI (SW-620 colon) was over 100 µM, the TGI (U251 CNS) was over 100 µM and the TGI (LOX IMVI melanoma) was over 100 µM. The TGI (SN12C renal) was over 100 µM, the TGI (LXFL 529 NSCLC) was over 100 µM and the TGI (KM12 colon) was over 100 µM. For the same compound, the TGI (HCT-116 colon) was over 100 µM, the TGI (A498 renal) was over 100 µM and the TGI (HOP-62 NSCLC) was over 100 µM. It also gave a TGI (786-0 renal) of over 100 µM, a TGI (SK-MEL-2 melanoma) of over 100 µM and a TGI (UO-31 renal) of over 100 µM. For the same compound, the TGI (SF-539 CNS) was over 100 µM, the TGI (RPMI-8226 leukemia) was over 100 µM and the TGI (K-562 leukemia) was over 100 µM. It also gave a TGI (UACC-62 melanoma) of over 100 µM, a TGI (SNB-75 CNS) of 46.4 µM and a TGI (HL-60(TB) leukemia) of over 100 µM. For the same compound, the TGI (M14 melanoma) was over 100 µM, the TGI (NCI-H23 lung) was over 100 µM and the TGI (RXF 393 renal) was over 100 µM. The TGI (OVCAR-4 ovarian) was over 100 µM, the TGI (UACC-257 melanoma) was over 100 µM and the TGI (KM20L2 colon) was over 100 µM. For the same compound, the TGI (CCRF-CEM leukemia) was over 100 µM, the TGI (SR leukemia) was over 100 µM and the TGI (OVCAR-8 ovarian) was over 100 µM. It also gave a TGI (TK-10 renal) of over 100 µM, a TGI (NCI-H226 lung) of over 100 µM and a TGI (HCT-15 colon) of over 100 µM. For the same compound, the TGI (EKVX NSCLC) was over 100 µM, the TGI (OVCAR-5 ovarian) was over 100 µM and the TGI (IGROV1 ovarian) was over 100 µM. The TGI (DMS 114 small cell lung) was over 100 µM, the TGI (COLO 205 colon) was over 100 µM and the TGI (SNB-78 CNS) was over 100 µM. For the same compound, the TGI (HT29 colon) was over 100 µM and the TGI (HCC-2998 colon) was over 100 µM.
`COc1ccc(C(OCC2OC(n3ccc(NC(=O)c4ccccc4)nc3=O)CC2OP2(=S)SCCS2)(c2ccccc2)c2ccc(OC)cc2)cc1` (stereo unspecified) gave a TGI (SF-268 CNS) of 44.1 µM, a TGI (SK-MEL-28 melanoma) of 90.3 µM and a TGI (NCI-H460 lung) of over 100 µM. For the same compound, the TGI (SK-OV-3 ovarian) was 64.2 µM, the TGI (MDA-N) was over 10 µM and the TGI (OVCAR-3 ovarian) was 58.5 µM. For the same compound, the TGI (SNB-19 CNS) was 86.4 µM, the TGI (SF-295 CNS) was 97.9 µM and the TGI (BT-549 breast) was 53.6 µM. It also gave a TGI (NCI-H522 lung) of 53 µM, a TGI (DU-145 prostate) of over 100 µM and a TGI (MOLT-4 leukemia) of over 100 µM. For the same compound, the TGI (PC-3 prostate) was 41.5 µM, the TGI (ACHN renal) was 61.5 µM and the TGI (A549 NSCLC) was over 100 µM. It also gave a TGI (SW-620 colon) of 44 µM, a TGI (U251 CNS) of 86.5 µM and a TGI (LOX IMVI melanoma) of 33.1 µM. The TGI (SN12C renal) was 58.6 µM, the TGI (HCT-116 colon) was over 100 µM and the TGI (HS 578T breast) was 76.3 µM. For the same compound, the TGI (MDA-MB-435) was over 100 µM, the TGI (T-47D breast) was over 100 µM and the TGI (MDA-MB-231 breast) was over 100 µM. It also gave a TGI (HOP-62 NSCLC) of 43.9 µM, a TGI (786-0 renal) of 82 µM and a TGI (SK-MEL-2 melanoma) of over 100 µM. For the same compound, the TGI (UO-31 renal) was over 100 µM, the TGI (RPMI-8226 leukemia) was over 100 µM and the TGI (K-562 leukemia) was over 100 µM. The TGI (UACC-62 melanoma) was 34.9 µM, the TGI (MCF7 breast) was over 100 µM and the TGI (SNB-75 CNS) was 46.6 µM. For the same compound, the TGI (MALME-3M melanoma) was 70.2 µM, the TGI (M14 melanoma) was 66.2 µM and the TGI (NCI-H23 lung) was over 100 µM. For the same compound, the TGI (RXF 393 renal) was 88.1 µM, the TGI (OVCAR-4 ovarian) was 68.6 µM and the TGI (UACC-257 melanoma) was over 100 µM. It also gave a TGI (SR leukemia) of over 100 µM, a TGI (OVCAR-8 ovarian) of 63.2 µM and a TGI (TK-10 renal) of over 100 µM. It also gave a TGI (NCI-H226 lung) of 67.4 µM, a TGI (HCT-15 colon) of over 100 µM and a TGI (EKVX NSCLC) of over 100 µM. It also gave a TGI (OVCAR-5 ovarian) of 94.6 µM, a TGI (IGROV1 ovarian) of over 100 µM and a TGI (COLO 205 colon) of over 10 µM. The TGI (HT29 colon) was 69.7 µM, the TGI (SK-MEL-5 melanoma) was 43.9 µM and the TGI (NCI/ADR-RES ovarian) was over 10 µM.
